Reference: paper PMC9501445 (2022)

System: 22GT (DNA, G4) GGGTTAGGGTTAGGGTTAGGGT
Experiment: ITC, global fit of coupled folding/binding model
Conditions: 100 mM K+; 1 mM cacodylate, 0.02 mM EDTA, pH 6.9, 3% DMSO, 25 °C; site 1 of 2 (intermediate I)

ΔG°: -9.6 ± 0.6 kcal/mol
SMILES: C[n+]1cc(NC(=O)c2cccc(C(=O)Nc3cc4ccccc4[n+](C)c3)n2)cc2ccccc21
